According to patent US20230373934A1, “ANDROGEN RECEPTOR MODULATORS AND METHODS FOR THEIR USE” (ESSA Pharma, Inc., priority 2022, published 2023):

What follows are compounds tested against T1, androgen receptor (AR) (Homo sapiens, UniProt P10275, T878A) (assay: Androgen-induced PSA-luciferase assay, Luciferase Assay A (LNCaP transiently transfected with PSA (6.1 kb)-luciferase reporter)). Conditions: LNCaP cells, 1 h pretreatment, R1881 (1 nM) 24 h, read-out: PSA-Luc IC50 Range.
T1 construct: endogenous in cells; host or cells: LNCaP
T1 sequence (P10275 1-920 T878A): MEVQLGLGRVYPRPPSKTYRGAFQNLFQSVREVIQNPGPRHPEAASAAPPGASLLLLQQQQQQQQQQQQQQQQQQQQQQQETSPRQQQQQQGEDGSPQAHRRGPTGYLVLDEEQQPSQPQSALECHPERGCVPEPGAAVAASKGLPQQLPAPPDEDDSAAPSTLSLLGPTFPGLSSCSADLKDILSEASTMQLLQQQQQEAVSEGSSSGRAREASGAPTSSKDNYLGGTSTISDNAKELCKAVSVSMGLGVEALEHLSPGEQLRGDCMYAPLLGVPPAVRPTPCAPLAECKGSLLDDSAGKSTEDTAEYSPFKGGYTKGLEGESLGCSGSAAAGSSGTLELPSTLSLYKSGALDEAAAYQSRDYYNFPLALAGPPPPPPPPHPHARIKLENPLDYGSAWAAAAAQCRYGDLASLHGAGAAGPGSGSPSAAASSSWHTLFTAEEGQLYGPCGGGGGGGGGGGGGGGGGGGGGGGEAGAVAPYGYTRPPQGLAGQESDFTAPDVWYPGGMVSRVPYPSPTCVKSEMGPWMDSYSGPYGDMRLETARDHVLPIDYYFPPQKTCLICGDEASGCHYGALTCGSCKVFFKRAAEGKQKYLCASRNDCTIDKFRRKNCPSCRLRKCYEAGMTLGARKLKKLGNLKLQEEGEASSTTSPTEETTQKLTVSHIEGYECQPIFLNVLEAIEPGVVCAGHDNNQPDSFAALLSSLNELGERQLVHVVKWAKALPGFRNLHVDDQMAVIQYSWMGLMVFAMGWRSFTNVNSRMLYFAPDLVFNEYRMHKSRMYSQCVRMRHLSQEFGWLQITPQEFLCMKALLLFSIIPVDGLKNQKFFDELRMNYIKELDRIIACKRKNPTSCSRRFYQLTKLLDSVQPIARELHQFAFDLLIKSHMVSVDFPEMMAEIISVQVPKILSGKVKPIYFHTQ
Format: cell-based
Protocol: The PSA (6.1 kb)-luciferase reporter contains functional AREs (androgen response elements) to which AR binds in response to androgen to induce luciferase activity. LNCaP cells were transiently transfected with the PSA (6.1 kb)-luciferase reporter for 24 h, and then pretreated with vehicle (DMSO) or indicated concentration of representative compounds for one hour prior to the addition of synthetic androgen, R1881 (1 nM). After 24 h of incubation with R1881, the cells were harvested, and relative luciferase activities were determined (FIG. 1). To determine the IC50, treatments were normalized to vehicle control activity induced by R1881 (Table 2).
Luciferase Assay A: Cells were lysed using Passive Lysis Buffer (Promega) and then collected into V-bottom 96-well tissue culture plates. Lysates were centrifuged at 4° C. for 5 minutes at 3000 rpm. To measure luminescence of LNCaP cell lysates the Firefly Luciferase Assay System (Promega) was employed, according to manufacturer's protocol. Relative luminescence units (RLU) in cell lysates were detected for 10 seconds using Promega GloMax-Multi Detection Luminometer (Promega). Values were normalized to protein content. GraphPad Prism graphing software was used to calculate IC50 values. Luciferase Assay A was run for all compounds in Table 2 unless otherwise noted below.
Statistical analyses were performed using GraphPad Prism (Version 6.01 for Windows; La Jolla, CA, USA). Comparisons between treatment and control groups were compared using Two-Way ANOVA with post-hoc Dunnett's and Tukey's tests. Differences were considered statistically significant at P values less than 0.05.

SMILES | IC50 [nM]
CC(C)(c1ccc(-c2cnc(CNS(C)(=O)=O)cn2)cc1)c1cc(Cl)c(OCCCl)c(C#N)c1 [Compound A2] | 500 to 2000
CC(C)(c1ccc(-c2ccc(CNS(C)(=O)=O)cn2)cc1)c1cc(Cl)c(OCCCl)c(C#N)c1 [Compound A3] | 500 to 2000
CC(C)(c1ccc(-c2cnc(CNS(C)(=O)=O)nc2)cc1)c1cc(Cl)c(OCCCl)c(C#N)c1 [Compound A4] | 500 to 2000
CC(C)(c1ccc(-c2ncc(CNS(C)(=O)=O)cn2)cc1)c1cc(Cl)c(OCCCl)c(C#N)c1 [Compound A5] | 500 to 2000
CC(C)(c1ccc(-c2ccc(CCNS(C)(=O)=O)nc2)cc1)c1cc(Cl)c(OCCCl)c(C#N)c1 [Compound A6] | < 500
CS(=O)(=O)NC1CN(CCc2ccc(Oc3cc(Cl)c(OCCCl)c(C#N)c3)cc2)C1 [Compound A7] | > 2000
CC(C)(c1ccc(CN2CCC(NS(C)(=O)=O)CC2)cc1)c1cc(Cl)c(OCCCl)c(C#N)c1 [Compound A8] | > 2000
CS(=O)(=O)NC1CCN(Cc2ccc(Oc3cc(Cl)c(OCCCl)c(C#N)c3)cc2)CC1 [Compound A9] | > 2000
CC(C)(c1ccc(-c2ccc3c(c2)COC32CN(S(C)(=O)=O)C2)cc1)c1cc(Cl)c(OCCCl)c(C#N)c1 [Compound A10] | 500 to 2000
CC(C)(c1ccc(N2CCN(CCNS(C)(=O)=O)CC2)cc1)c1cc(Cl)c(OCCCl)c(C#N)c1 [Compound A13] | > 2000
CC(C)(c1ccc(N2CCOC(CNS(C)(=O)=O)C2)cc1)c1cc(Cl)c(OCCCl)c(C#N)c1 (stereo not shown) [Compound A14] | 500 to 2000
CC(C)(c1ccc(CCN2CC(NS(C)(=O)=O)C2)cc1)c1cc(Cl)c(OCCCl)c(C#N)c1 [Compound A20] | > 2000
CS(=O)(=O)NCc1ccc(-c2ccc(Oc3cc(Cl)c(OCCCl)c(C#N)c3)cc2)cn1 [Compound A21] | 500 to 2000
CS(=O)(=O)Nc1cnc2cc(-c3ccc(Oc4cc(Cl)c(OCCCl)c(C#N)c4)cn3)ccc2n1 [Compound A23] | > 2000
CC(C)(c1ccc(OC[C@]2(C)C[C@@H](NS(C)(=O)=O)C2)cc1)c1cc(Cl)c(OCCCl)c(C#N)c1 [Compound A25] | > 2000
CC(C)(c1ccc(OC[C@]2(F)C[C@H](NS(C)(=O)=O)C2)cc1)c1cc(Cl)c(OCCCl)c(C#N)c1 [Compound A26] | > 2000
CS(=O)(=O)Nc1cnc2cc(-c3ccc(Nc4cc(Cl)c(OCCCl)c(C#N)c4)cc3)ccc2n1 [Compound A27] | > 2000
CC(C)(c1ccc(CCN2CCC(NS(C)(=O)=O)CC2)cc1)c1cc(Cl)c(OCCCl)c(C#N)c1 [Compound A29] | > 2000
CS(=O)(=O)NC1CCN(CCc2ccc(Oc3cc(Cl)c(OCCCl)c(C#N)c3)cc2)CC1 [Compound A30] | > 2000
CC(C)(c1ccc(N2CCOC(CCNS(C)(=O)=O)C2)cc1)c1cc(Cl)c(OCCCl)c(C#N)c1 (stereo not shown) [Compound A31] | > 2000
CC(C)(c1ccc(N2CCOC3(CCN(S(C)(=O)=O)CC3)C2)cc1)c1cc(Cl)c(OCCCl)c(C#N)c1 [Compound A32] | < 500
CC(C)(c1ccc(O[C@H]2CC[C@H](NS(C)(=O)=O)CC2)cc1)c1cc(Cl)c(OCCCl)c(C#N)c1 [Compound A33] | > 2000
CC(C)(c1ccc(CN2CCC(NS(C)(=O)=O)C(F)(F)C2)cc1)c1cc(Cl)c(OCCCl)c(C#N)c1 (stereo not shown) [Compound A34] | > 2000
CS(=O)(=O)NC1CCN(Cc2ccc(Oc3cc(Cl)c(OCCCl)c(C#N)c3)cc2)CC1(F)F (stereo not shown) [Compound A35] | > 2000
CS(=O)(=O)NC1CN(c2ccc(-c3ccc(Oc4cc(Cl)c(OCCCl)c(C#N)c4)cc3)cn2)C1 [Compound A38] | 500 to 2000
CC(C)(c1ccc(OC[C@]2(F)C[C@@H](NS(C)(=O)=O)C2)cc1)c1cc(Cl)c(OCCCl)c(C#N)c1 [Compound A39] | 500 to 2000
CC(C)(c1ccc(-c2ccnc(N3CC(NS(C)(=O)=O)C3)n2)cc1)c1cc(Cl)c(OCCCl)c(C#N)c1 [Compound A40] | > 2000
CC(C)(c1ccc(-c2cncc(N3CC(NS(C)(=O)=O)C3)n2)cc1)c1cc(Cl)c(OCCCl)c(C#N)c1 [Compound A41] | > 2000
